In ChEMBL document CHEMBL1130169, “Validation of EGSITE2, a mixed integer program for deducing objective site models for experimental binding data” (J Med Chem, 1997) one finds -Log Kdiss data, which are given here for 19 compounds.

Each structure is given as a SMILES string.

For this assay, the target named is T1, Sex hormone-binding globulin (Homo sapiens) (UniProt P04278).
T1 sequence (whole entry): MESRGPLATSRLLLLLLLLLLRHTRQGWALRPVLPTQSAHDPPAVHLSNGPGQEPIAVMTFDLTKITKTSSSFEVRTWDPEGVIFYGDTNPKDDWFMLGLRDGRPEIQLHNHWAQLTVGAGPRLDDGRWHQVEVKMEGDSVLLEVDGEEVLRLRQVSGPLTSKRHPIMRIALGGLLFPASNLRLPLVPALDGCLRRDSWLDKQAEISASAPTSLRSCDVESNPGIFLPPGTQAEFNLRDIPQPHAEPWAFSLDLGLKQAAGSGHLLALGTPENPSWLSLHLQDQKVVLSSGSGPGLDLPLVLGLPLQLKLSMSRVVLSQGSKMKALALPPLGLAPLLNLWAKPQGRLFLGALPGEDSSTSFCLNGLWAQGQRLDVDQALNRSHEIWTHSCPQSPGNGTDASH
Description: Binding affinity towards human testosterone binding globulin.
For the compound `C[C@]12CC[C@@H]3c4ccc(O)cc4CC[C@H]3[C@@H]1C[C@@H](O)[C@@H]2O`, the -Log Kdiss amounted to 5.63.
As for `C[C@]12CCC(=O)C=C1CC[C@@H]1[C@@H]2[C@@H](O)C[C@@]2(C)[C@H]1CC[C@]2(O)C(=O)CO`, the figure is 5.2; as for `C[C@]12CC[C@H](O)C[C@@H]1CC[C@@H]1[C@@H]2CC[C@]2(C)[C@@H](O)CC[C@@H]12`, 8.11.
To `CC(=O)[C@H]1CC[C@H]2[C@@H]3CC=C4C[C@@H](O)CC[C@]4(C)[C@H]3CC[C@]12C` belongs 6.15; to `C[C@]12CCC(=O)C=C1CC[C@@H]1[C@@H]2CC[C@@]2(C)[C@H]1CC[C@]2(O)C(=O)CO`, 6.2.
To `C[C@]12CCC(=O)C[C@@H]1CC[C@@H]1[C@@H]2CC[C@]2(C)[C@@H](O)CC[C@@H]12` belongs 8.74.
With `C[C@]12CCC(=O)C=C1CC[C@@H]1[C@@H]2CC[C@]2(C)C(=O)CC[C@@H]12`, the -Log Kdiss turned out to be 6.46.
To `CC(=O)[C@@]1(O)CC[C@H]2[C@@H]3CCC4=CC(=O)CC[C@]4(C)[C@H]3CC[C@@]21C` belongs 6; to `C[C@]12C[C@H](O)[C@H]3[C@@H](CCC4=CC(=O)CC[C@@]43C)[C@@H]1CC[C@@H]2C(=O)CO`, 5.34; to `C[C@]12CCC(=O)C=C1CC[C@@H]1[C@@H]2C(=O)C[C@@]2(C)[C@H]1CC[C@]2(O)C(=O)CO`, 5.43.
As for `C[C@]12CC[C@H]3[C@@H](CCC4=CC(=O)CC[C@@]43C)[C@@H]1CC[C@@H]2O`, the figure is 8.2; as for `CC(=O)[C@@]1(O)CC[C@H]2[C@@H]3CC=C4C[C@@H](O)CC[C@]4(C)[C@H]3CC[C@@]21C`, 5.36.
To `C[C@]12CC[C@H]3[C@@H](CCC4=CC(=O)CC[C@@]43C)[C@@H]1CC[C@@H]2C(=O)CO` belongs 6.38; to `C[C@]12CC[C@@H](O)C[C@@H]1CC[C@@H]1[C@@H]2CC[C@]2(C)C(=O)CC[C@@H]12`, 6.15.
Turning to `CC(=O)[C@H]1CC[C@H]2[C@@H]3CCC4=CC(=O)CC[C@]4(C)[C@H]3CC[C@]12C`, the -Log Kdiss turned out to be 5.94.
To `C[C@]12CCC3C(CC[C@@H]4CC(O)=CC[C@]34C)C1CCC2=O` (some centres undefined) belongs 5.15.
To `C[C@]12CC[C@H](O)CC1=CCC1C2CC[C@]2(C)C(=O)CCC12` (some centres undefined) belongs 6.82; to `C[C@]12CCC(=O)C=C1CCC1C3CC[C@H](C(=O)CO)[C@@]34C[C@H](OC4O)C12` (some centres undefined), 4.32; to `C[C@]12CC[C@@H]3c4ccc(O)cc4CCC3[C@@H]1CCC2=O` (single isomer, unassigned), 7.18.
